2 compounds from PubChem BioAssay AID651552 (The Scripps Research Institute Molecular Screening Center, 2012) can be followed below.

Calls of active or inactive are those of the source. No rule for the calls is given here.

The assay deals with beta-lactamase TEM-1 reporter (bacterial) (UniProt Q932Y6). Kind of assay: beta-lactamase reporter inhibitor potency, dose response, artefact control for NOD2-RIPK2 interaction inhibitor project, BLA reporter cells, FRET fluorescence (AID 651552). As to conditions: HEK293 BLA reporter cells.

As a reminder, the IC50 is the midpoint of a concentration-inhibition curve.

With `COc1ccc(C[C@H]2NC[C@H](O)[C@H]2OC(C)=O)cc1`, the IC50 is > 49.8 µM (inactive).

For `C=CCn1c(O)c(C2=c3ccccc3=NC2=O)c2ccccc21`, the IC50 was > 49.7 µM (inactive).
